# Laboratory results as given in patent US7163935B2, “Scorpionate-like pendant macrocyclic ligands, complexes and compositions thereof, and methods of using same” (The United States of America as represented by the …, priority 2002, dated 2007).
# Test: Complexation (formation) kinetics with Y(III), competing reaction with Arsenazo III, absorbance at 652 nm
# Assay type: physicochemical
# Conditions: pH 4, room temperature
# Description: Formation kinetics of Y(III) complexes of 1, 2, and DOTA (Macrocyclics) was measured by monitoring the absorption at 652 nm. To 2 mL of 1.6 mM YCl3 (from atomic absorption standard solution, Aldrich) and 5 mM Arsenazo III (Sigma) in 0.15 M NH4OAc (pH 4.0, metal-free), 20 μL of 10 mM ligand solution were added into a cell. After mixing (<5 sec), absorption of the solution at 652 nm (absorption wavelength of Y(III)-Arsenazo III) (Kline et al., Bioconjugate Chem., 1991, 2,26–31) was immediately followed over time at room temperature using an HP 8452A Diode Array Spectrophotometer, which was pre-blanked with a 5 mM Arsernazo III solution. Without any ligand added, the absorption was 0.089 for 1.6 mM YCl3 in 5 mM Arsernazo III solution at 652 nm.
# The complexation kinetics of novel chelates 1, 2, and DOTA with Y(III) was qualitatively investigated using a competing reaction with Arsenazo III according to a modification of a previously reported procedure (Kodama et al., Inorg. Chem., 1991, 30, 1270–1273). The absorbance (A652) for the Y(III)-Arsenazo III complex was measured in the absence and in the presence of the chelates (1, 2, and DOTA) over 1 h. The results are shown in FIG. 3, which is a line graph of absorbance at 652 nm vs. reaction time (s), in which curve “a” represents Y-2, curve “b” represents Y-DOTA, and curve “c” represents Y-1. […] Complexation of Y(III) by 2 is assumed to occur to some degree, but the formed complex might undergo decomplexation due to an absence of complex stability, ultimately leading to an unfavorable equilibrium situation.
# [1] = Arsenazo III competition, A652 over 1 h
SMILES,complex formation with Y(III) (rate) [1],degree of complexation of Y(III) [1],rate of complex formation with Y(III) compared to DOTA (time scan measurements)
"O=C(O)CN1CCN(CC(=O)O)CCN(CC(=O)O)CCN(CC(=O)O)CC1 [DOTA, 1,4,7,10-tetraazacyclododecane-N,N′,N″,N′″-tetraacetic acid, reference compound]",sluggish,–,–
"Cl.Cl.Cl.Cl.O=C(O)CN1CCN(CCCN(CC(=O)O)CC(=O)O)CCN(CC(=O)O)CC1 [ligand 2, {[3-(4,7-bis-carboxymethyl)-[1,4,7]triazacyclononan-1-yl-propyl]-carbonyl-methylamino]-acetic acid tetrahydrochloride]",very slow,slight and remained unchanged over the period of measurement,–
"Cl.Cl.Cl.Cl.O=C(O)CN1CCN(CCN(CC(=O)O)CC(=O)O)CCN(CC(=O)O)CC1 [ligand 1, {[2-(4,7-bis-carboxymethyl)-[1,4,7]triazacyclononan-1-yl-ethyl]-carbonylmethyl-amino]-acetic acid tetrahydrochloride]",quite rapid and is essentially complete very shortly after the starting point of measurement,–,much greater rate than DOTA
